Measurements taken from paper PMC2916072 (Archives of biochemistry and biophysics, 2010).

Target: Met receptor tyrosine kinase (Homo sapiens, UniProt P08581)
Experiment: phospho-Met
Type: cell-based

Sequence of Met receptor tyrosine kinase (P08581 25-307): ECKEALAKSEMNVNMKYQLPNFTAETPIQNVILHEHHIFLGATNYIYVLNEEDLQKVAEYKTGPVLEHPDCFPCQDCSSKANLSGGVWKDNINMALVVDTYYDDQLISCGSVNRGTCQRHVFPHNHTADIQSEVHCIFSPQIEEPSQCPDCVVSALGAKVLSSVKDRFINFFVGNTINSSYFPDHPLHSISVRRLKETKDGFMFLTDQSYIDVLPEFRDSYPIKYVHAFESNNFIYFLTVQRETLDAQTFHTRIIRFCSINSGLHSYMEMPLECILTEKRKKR
Sequence of Met receptor tyrosine kinase (P08581 308-1390): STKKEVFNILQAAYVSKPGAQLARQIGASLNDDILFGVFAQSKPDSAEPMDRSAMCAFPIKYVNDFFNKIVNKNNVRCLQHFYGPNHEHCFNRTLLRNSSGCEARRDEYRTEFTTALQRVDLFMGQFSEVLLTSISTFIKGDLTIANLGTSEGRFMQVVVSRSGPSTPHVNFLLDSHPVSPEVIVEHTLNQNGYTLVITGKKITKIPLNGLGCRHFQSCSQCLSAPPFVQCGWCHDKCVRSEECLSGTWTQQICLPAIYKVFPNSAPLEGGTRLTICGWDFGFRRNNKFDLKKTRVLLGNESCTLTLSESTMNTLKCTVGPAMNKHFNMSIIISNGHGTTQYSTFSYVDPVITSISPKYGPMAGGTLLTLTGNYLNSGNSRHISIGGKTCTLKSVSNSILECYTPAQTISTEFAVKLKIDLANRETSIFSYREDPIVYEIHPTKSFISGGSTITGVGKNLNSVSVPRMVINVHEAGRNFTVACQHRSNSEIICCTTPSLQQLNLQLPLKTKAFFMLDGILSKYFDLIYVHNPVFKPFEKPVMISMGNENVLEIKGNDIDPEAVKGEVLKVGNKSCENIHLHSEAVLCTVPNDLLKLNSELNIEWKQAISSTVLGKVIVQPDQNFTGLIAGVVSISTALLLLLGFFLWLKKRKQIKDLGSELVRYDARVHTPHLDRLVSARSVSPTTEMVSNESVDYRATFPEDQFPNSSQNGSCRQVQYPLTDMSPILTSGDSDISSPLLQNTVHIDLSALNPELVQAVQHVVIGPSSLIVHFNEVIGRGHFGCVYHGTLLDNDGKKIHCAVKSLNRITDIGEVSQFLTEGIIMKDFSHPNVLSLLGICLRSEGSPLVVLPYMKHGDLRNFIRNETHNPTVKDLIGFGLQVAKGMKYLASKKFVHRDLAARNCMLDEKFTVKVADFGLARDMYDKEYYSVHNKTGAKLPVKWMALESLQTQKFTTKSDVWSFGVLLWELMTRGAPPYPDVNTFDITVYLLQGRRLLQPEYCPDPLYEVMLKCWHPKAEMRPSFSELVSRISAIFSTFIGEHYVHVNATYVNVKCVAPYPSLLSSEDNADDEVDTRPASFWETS

Question: Cc1[nH]c(/C=C2\C(=O)Nc3ccc(S(=O)(=O)N(C)c4cccc(Cl)c4)cc32)c(C)c1C(=O)N1CCN(C)CC1 [SU11274, (3Z)-N-(3-chlorophenyl)-3-({3,5-dimethyl-4-[(4-methylpiperazin-1-yl)carbonyl]-1H-pyrrol-2-yl}methylene)-N-methyl-2-oxoindoline-5-sulfonamide] was tested. Which IC50 did it give?
Answer: The IC50 was 50 nM.
